Publication PMC5120274, “Characterization of the Annonaceous acetogenin, annonacinone, a natural product inhibitor of plasminogen activator inhibitor-1” (Scientific Reports, 2016)
Values joined by “and” are separate entries in the source; they are usually repeats but may differ in a detail not shown here. Identical values can stand only once. Like-named read-outs stand apart in the source and are kept apart here.

Key:
PAI-1 [1] = target: T1, PAI-1 (Homo sapiens, UniProt P05121); assay: chromogenic screening assay: rate of tPA inhibition by PAI-1 (spectrozyme tPA hydrolysis); assay type: biochemical; conditions: for kapp 50 μM (apparent rate constant of tPA inhibition by PAI-1): compound 50 μM, 1% DMSO, PAI-1 20 nM, tPA 10 nM, DMSO 1% control 4.4 ± 0.3 × 10^-3
T1 construct: purchased Stago BNL (Asnières sur Seine, FR)
T1 sequence (P05121 24-402): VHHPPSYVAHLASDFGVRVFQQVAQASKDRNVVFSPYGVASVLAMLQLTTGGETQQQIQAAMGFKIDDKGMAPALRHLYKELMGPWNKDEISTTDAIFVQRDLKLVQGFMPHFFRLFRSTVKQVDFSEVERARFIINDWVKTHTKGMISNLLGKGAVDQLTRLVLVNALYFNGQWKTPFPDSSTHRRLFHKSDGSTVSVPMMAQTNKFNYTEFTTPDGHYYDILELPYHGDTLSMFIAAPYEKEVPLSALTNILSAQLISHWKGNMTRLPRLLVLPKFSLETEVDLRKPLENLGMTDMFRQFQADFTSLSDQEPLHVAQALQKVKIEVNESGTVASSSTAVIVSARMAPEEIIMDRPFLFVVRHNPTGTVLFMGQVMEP
Protocol: Compounds from our local collection BioCIS and from the Prestwick compound library (Prestwick chemicals, Illkirch, FR), a collection containing only FDA approved drugs (around 4000 compounds in total) were tested in a chromogenic assay measuring the inhibition rate of tPA-catalyzed spectrozyme® tPA hydrolysis in the presence of PAI-1. Compounds (20 μL, final concentration 50 μM, 1% DMSO) were dispensed in a 96 well half area Greiner plate. A mixture containing 20 μL of PAI-1 (final concentration 20 nM) and 80 μL of Spectrozyme-tPA (final concentration 400 μM) was then added, and the mixture pre-incubated for 45 minutes at 37 °C. At the end of pre-incubation time, 90 μL of the mixture were added to another 96 well half area plate containing 10 μL tPA (final concentration 10 nM). The kinetic was then measured at 405 nm for 45 min at 37 °C in an Envision microplate reader. Progress curves were fitted using the pseudo first order equation to determine the apparent rate constant k.

vitronectin-bound PAI-1 = conditions: cited from earlier work
PAI-1 [2] = target: T1, PAI-1; assay: thromboelastography (TEG) on pooled human plasma with tPA and PAI-1; assay type: biochemical; conditions: compound 50 μM, tPA 9 nM + PAI-1 22 nM
Protocol: 20 μL of CaCl2 (0.2 M), 10 μL of PAI-1 (final concentration 22 nM) and 10 μL of tested compounds were added in a TEG cup and pre-incubated for 20 min at room temperature. On the other hand, 1 mL of pooled citrated normal human plasma (pool of at least 10 healthy donors) was added to a vial containing 20 μL of Kaolin. 680 μl of the plasma/Kaolin mixture were then added to 20 μL of tPA (final concentration 9 nM). At the end of pre-incubation time, 320 μL of the plasma/tPA/kaolin mixture were transferred into the TEG cup and the thromboelastogram measured.

[3] = chromogenic screening assay, without vitronectin, mean ± SEM, n = 3, read-out: IC50

Structure (SMILES) | IC50 (PAI-1 [1]) [µM] | kapp 50 μM (apparent rate constant of tPA inhibition by PAI-1) (PAI-1 [1]; mean ± SEM, n = 3) | IC50 (PAI-1 [1]; [3]) [µM] | activity against PAI-1 bound to vitronectin (vitronectin-bound PAI-1) | also measured
CCCCCCCCCCCC[C@@H](O)[C@H]1CC[C@H]([C@H](O)CCCC[C@H](O)CCCCC[C@@H](O)CC2=CC(C)OC2=O)O1 (stereo partly shown) [Annonacine] | 6 ± 3 | 6.4 ± 0.4 × 10^-4 s^-1 | – | – | –
CCCCCCCCCCCC[C@@H](O)[C@H]1CC[C@H]([C@H](O)CCCC[C@H](O)CCCCCC2CC(CC(C)=O)C(=O)O2)O1 (stereo partly shown) [Isoannonacine] | > 50 | 1.1 ± 0.1 × 10^-3 s^-1 | – | – | –
CCCCCCCCCC[C@H](O)[C@H]1CC[C@H]([C@H]2CC[C@H]([C@H](O)CCCCCCCCCCC3CC(CC(C)=O)C(=O)O3)O2)O1 (stereo partly shown) [Isorolliniastatin-2] | – | 8.5 ± 0.6 × 10^-4 s^-1 | 10 ± 2 | – | –
CCCCCc1c(-c2ccc3cc(OCc4nnn[nH]4)ccc3c2)n(Cc2ccccc2)c2ccccc12 [PAI-749] | – | – | – | devoid of activity | –
CCCCCCCCCC[C@H](O)[C@H]1CC[C@H]([C@H]2CC[C@H]([C@H](O)CCCCCCCCCCC(O)CC3=C[C@H](C)OC3=O)O2)O1 (stereo partly shown) [Rolliniastatin-2] | – | 7.5 ± 0.5 × 10^-4 s^-1 | 19 ± 1 | – | –
O=C(O)C(=O)c1cn(Cc2ccccc2)c2ccc(-c3ccc(OC(F)(F)F)cc3)cc12 [Tiplaxtinin, reference compound] | – | 1.7 ± 0.3 × 10^-3 s^-1 | – | devoid of activity | kapp 50 μM (apparent rate constant of tPA inhibition by PAI-1) (PAI-1 [1]; mean ± SEM, n = 3, listed as tiplaxtinin): 1.7 ± 0.3 × 10^−3 s^-1; Angle (PAI-1 [2]): 66.2 °; K (clot formation time) (PAI-1 [2]): 1.8 min; MA (maximal amplitude) (PAI-1 [2]): 24.5 mm; R (clotting time) (PAI-1 [2]): 7 min; LY30 (clot lysis 30 minutes after maximal amplitude) (PAI-1 [2]; tPA alone 94.3%, tPA + PAI-1 0%): 21.9%; LY60 (clot lysis 60 minutes after maximal amplitude) (PAI-1 [2]; tPA alone 96.8%, tPA + PAI-1 0%): 50% and 50.2%; activity against vitronectin-bound PAI-1 (vitronectin-bound PAI-1): inactive
